Reference: a compilation of properties of binary mixtures (doi:10.1515/zpch-2013-0494)

Experiment: xn = mol fraction of the nth substance listed
Conditions: 101 kPa

CC(CC(C)(C)C)CP(=O)([O-])CC(C)CC(C)(C)C.CCCCCCCCCCCCCC[P+](CCCCCC)(CCCCCC)CCCCCC + CCCCCCCCCCCC
viscosity [mPa·s]
Conditions | x1 = 0.4684 | x1 = 0.6647 | x1 = 0.8071 | x1 = 1
298.15 K | – | 249 | 449 | 1000
303.15 K | 64.2 | 195 | 344 | –
308.15 K | – | 156 | 291 | –
313.15 K | 48 | 126 | 233 | 439
318.15 K | 40.9 | – | 180 | –
323.15 K | 35.2 | 85 | 144 | 264
328.15 K | 30.5 | 69.9 | 118 | –
333.15 K | 27.1 | 59.3 | 95.4 | 170
338.15 K | 24.2 | – | 81.1 | –
343.15 K | 21.2 | – | 65 | –
353.15 K | – | – | – | 78

CCCCCCCCCCCCCC[P+](CCCC)(CCCC)CCCC.CCCCCCCCCCCCc1ccccc1S(=O)(=O)[O-] + CCCCCCCCCCCC
viscosity [mPa·s]
Conditions | x1 = 0.354 | x1 = 0.4402 | x1 = 0.4844 | x1 = 0.6789 | x1 = 1
298.15 K | 312 | – | 594 | 2930 | –
303.15 K | 225 | – | 441 | 1580 | –
308.15 K | 167 | 239 | – | 1130 | –
313.15 K | – | – | – | 812 | 1480
318.15 K | 95 | 135 | 176 | – | –
323.15 K | 74.3 | 105 | 135 | 431 | 750
328.15 K | – | 81.7 | 101 | – | –
333.15 K | 47.7 | 65.7 | 81.6 | 228 | 409
338.15 K | – | 53.6 | – | 169 | –
343.15 K | 31.5 | 44.3 | 54.4 | – | 238
348.15 K | 26.5 | 36.8 | 43.3 | 108 | –
353.15 K | 22.6 | 31.1 | 37.1 | – | 148

CCCCCCCCCCCCCC[P+](CCCCCC)(CCCCCC)CCCCCC.N#C[N-]C#N + CCCCCCCCCCCC
viscosity [mPa·s]
Conditions | 298.15 K | 303.15 K | 308.15 K | 313.15 K | 318.15 K | 333.15 K | 338.15 K | 343.15 K | 348.15 K | 353.15 K
x1 = 0.5534 | 160 | 116 | – | 71.6 | 57.8 | 32.8 | 28 | – | 21.2 | 19
x1 = 0.736 | 238 | 181 | 141 | – | 89.1 | 49.3 | 41.4 | 35.5 | 30.3 | 26.1
x1 = 1 | 440 | – | – | 196 | – | 82 | – | 56 | – | –
